From paper PMC10853936, “Heterologous investigation of metabotropic and ionotropic odorant receptors in ab3A neurons of Drosophila melanogaster” (Frontiers in Molecular Biosciences, 2024) come the findings set out here.

The target in this assay is T1, CpomOrco (homomeric) (Cydia pomonella, UniProt H9A5M2).
T1 construct: full-length CDS in pcDNA5/TO, expressed alone in HEK293 cells (HEK293A in methods, HEK293T in results)
T1 sequence (H9A5M2 1-473): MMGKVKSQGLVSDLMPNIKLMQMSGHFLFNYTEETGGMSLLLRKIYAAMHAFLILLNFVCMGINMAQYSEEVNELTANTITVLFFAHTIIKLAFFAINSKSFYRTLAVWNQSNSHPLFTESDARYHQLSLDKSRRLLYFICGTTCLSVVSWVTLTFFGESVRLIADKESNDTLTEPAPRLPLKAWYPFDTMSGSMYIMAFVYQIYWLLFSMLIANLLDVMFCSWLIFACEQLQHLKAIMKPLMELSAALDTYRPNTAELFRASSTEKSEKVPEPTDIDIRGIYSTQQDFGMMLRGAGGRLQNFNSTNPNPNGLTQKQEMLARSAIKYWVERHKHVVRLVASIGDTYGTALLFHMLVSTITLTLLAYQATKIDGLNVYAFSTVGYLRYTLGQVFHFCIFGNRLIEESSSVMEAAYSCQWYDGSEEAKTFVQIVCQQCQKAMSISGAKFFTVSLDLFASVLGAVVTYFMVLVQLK
Description: Fluo-4 calcium imaging in HEK293 cells, Hill fit. The settings on record: read-out: [VUAA1]1/2. Format: cell-based.

`CCc1ccc(NC(=O)CSc2nnc(-c3cccnc3)n2CC)cc1` [VUAA1, acetamide, N-(4-ethylphenyl)-2-[[4-ethyl-5-(3-pyridinyl)-4H-1,2,4-triazol-3-yl]thio]-]: the EC50 was determined as 284 ± 39 µM.
